Drawing on patent US20240150293A1, “SPIROCYCLOHEXANE DERIVATIVES, PHARMACEUTICAL COMPOSITIONS CONTAINING THEM AND THEIR USES AS ANTI-APOPTOTIC INHIBITORS” (LES LABORATOIRES SERVIER, priority 2021, published 2024), this text covers Ki and IC50 for 24 compounds.

The target in assay [1] is Mcl-1 protein (UniProtKB Q07820) (Homo sapiens (Human), UniProt Q07820). The experiment in a line: Inhibition of Mcl-1 by the fluorescence polarisation assay (Example A, Method A). The format is binding. To be noted: fluorescence polarization assay. The method in brief: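 Protein (5 nM) and fluorescein-tagged peptide tracer (1 nM) incubated with 11-point compound series for 2 h at room temperature in HEPES/NaCl/Tween 20 buffer, pH 7.4, 5% DMSO. Displacement read as decrease in polarisation; IC50 fitted by 4-parameter logistic, converted to Ki (cKi or eKi).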
(Polarisation of emitted light reports the rotation of a fluorescent probe.)

The subject of assay [2] is H929 multiple myeloma tumor line. The experiment in a line: In vitro cytotoxicity, MTT assay (Example B, Method A). The format is cell-based. To be noted: H929 cells, 48 hours exposure, read-out: C50. On the procedure:
The cytotoxicity studies were carried out on the H929 multiple myeloma tumor line.
The cells are distributed onto microplates and exposed to the test compounds for 48 hours. The cell viability is then quantified by a colorimetric assay, the Microculture Tetrazolium Assay (Carmichael et al, Cancer Res. 1987, 47, 939-942).
The results are expressed in C50 which means concentration corresponding to […] of effect/inhibition.
Background: Formazan colour is commonly taken as a measure of viable cells.

Where two headings read alike, the source gives them in different places.

For orientation: Ki means a measure of affinity in units of concentration, obtained from inhibition or displacement.

Mcl-1 protein, sequence (Q07820 whole entry): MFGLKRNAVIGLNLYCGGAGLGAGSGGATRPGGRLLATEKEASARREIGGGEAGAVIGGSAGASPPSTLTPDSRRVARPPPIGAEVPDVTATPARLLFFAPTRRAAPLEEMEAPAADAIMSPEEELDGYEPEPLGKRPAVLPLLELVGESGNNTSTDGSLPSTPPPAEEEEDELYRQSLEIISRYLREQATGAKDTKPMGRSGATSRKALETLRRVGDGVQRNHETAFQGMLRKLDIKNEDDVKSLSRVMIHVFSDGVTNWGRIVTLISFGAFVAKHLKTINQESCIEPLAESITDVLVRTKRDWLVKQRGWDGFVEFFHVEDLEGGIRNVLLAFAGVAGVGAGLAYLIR

With `O=C(O)[C@]1(Nc2cccc(Cl)c2)CC[C@@]2(CC1)c1ccccc1C[C@@H]2C[C@@H](COc1ccncc1)c1ccccc1` [Example 552, (1r,2′S,4S)-4-(3-chloroanilino)-2′-{(2R)-2-phenyl-3-[(pyridin-4-yl)oxy]propyl}-2′,3′-dihydrospiro[cyclohexane-1,1′-indene]-4-carboxylic acid], the Ki in assay [1] came out at 0.11 µM. For the same compound, the IC50 in assay [2] (Homo sapiens, NCI-H929, 48 h) amounted to 3.38 µM.

Regarding `CCOc1ccc2c(c1)[C@]1(CC[C@@](Nc3cccc(Cl)c3)(C(=O)O)CC1)C(c1cccc(Oc3ccccc3)c1)C2` (single isomer, unassigned) [Example 386, (1r,4r)-4-(3-chloroanilino)-6′-ethoxy-2′-(3-phenoxyphenyl)-2′,3′-dihydrospiro[cyclohexane-1,18′-indene]-4-carboxylic acid], in assay [1], the inhibitory constant (Ki) was found to be 0.161 µM. In assay [2] (Homo sapiens, NCI-H929, 48 h), the IC50 was 7.92 µM.

Take `CC(C)C(COc1ccnc2ccsc12)CC1Cc2ccccc2[C@]12CC[C@@](Nc1cccc(Cl)c1)(C(=O)O)CC2` (single isomer, unassigned) [Example 522, (1r,4r)-4-(3-chloroanilino)-2′-(3-methyl-2-{[(thieno[3,2-b]pyridin-7-yl)oxy]methyl}butyl)-2′,3′-dihydrospiro[cyclohexane-1,1′-indene]-4-carboxylic acid]: in assay [1], the Ki is 6.36 µM. The IC50 in assay [2] (Homo sapiens, NCI-H929, 48 h) amounted to 17.1 µM.

For `O=C(O)[C@]1(Nc2cccc(Cl)c2)CC[C@]2(CC1)C(CCCCc1ccccc1)=Cc1ccccc12` [Example 393, (1r,4r)-4-(3-chloroanilino)-2′-(4-phenylbutyl)spiro[cyclohexane-1,1′-indene]-4-carboxylic acid], in assay [1], the Ki turned out to be 0.15 µM. The IC50 in assay [2] (Homo sapiens, NCI-H929, 48 h) was 12 µM.

As for `O=C(O)[C@]1(Nc2cccc(Cl)c2)CC[C@@]2(CC1)c1ccccc1C[C@H]2c1cccc(Oc2ccccc2)c1` [Example 323, (1r,2′S,4S)-4-(3-chloroanilino)-2′-(3-phenoxyphenyl)-2′,3′-dihydrospiro[cyclohexane-1,1′-indene]-4-carboxylic acid], the Ki in assay [1] is 0.106 µM. The IC50 in assay [2] (Homo sapiens, NCI-H929, 48 h) amounted to 10.5 µM.

For `COCCOc1ccc2c(c1)[C@]1(CC[C@@](Nc3cccc(Cl)c3)(C(=O)O)CC1)C(c1cccc(Oc3ccccc3)c1)C2` (single isomer, unassigned) [Example 384, (1r,4r)-4-(3-chloroanilino)-6′-(2-methoxyethoxy)-2′-(3-phenoxyphenyl)-2′,3′-dihydrospiro[cyclohexane-1,1′-indene]-4-carboxylic acid], in assay [1], the inhibition constant Ki is 0.0588 µM. Further, the IC50 in assay [2] (Homo sapiens, NCI-H929, 48 h) was found to be 11.4 µM.

Turning to `Cc1c[nH]c2cccc(OCCC[C@H]3Cc4ccccc4[C@]34CC[C@@](Nc3cccc(Cl)c3)(C(=O)O)CC4)c12` [Example 484, (1r,2′S,4S)-4-(3-chloroanilino)-2′-{3-[(3-methyl-1H-indol-4-yl)oxy]propyl}-2′,3′-dihydrospiro[cyclohexane-1,1′-indene]-4-carboxylic acid], in assay [1], the inhibition constant (Ki) was 0.759 µM. In assay [2] (Homo sapiens, NCI-H929, 48 h), the IC50 was 9.64 µM.

In the case of `O=C(O)C1(Nc2cccc(Br)c2)CCC2(CCc3ccccc32)CC1` (stereo not drawn) [Example 57, 4-(3-bromoanilino)-2′,3′-dihydrospiro[cyclohexane-1,1′-indene]-4-carboxylic acid], the Ki in assay [1] was 0.934 µM. In addition, in assay [2] (Homo sapiens, NCI-H929, 48 h), the IC50 was determined as 30 µM.

As to `O=C(O)[C@]1(Nc2cccc(Cl)c2)CC[C@]2(CC1)C(c1ccc(Oc3ccccc3)cc1)=Cc1ccccc12` [Example 341, (1s,4s)-4-(3-chloroanilino)-2′-(4-phenoxyphenyl)spiro[cyclohexane-1,1′-indene]-4-carboxylic acid], in assay [1], the inhibitory constant (Ki) was found to be 0.159 µM. For the same compound, the IC50 in assay [2] (Homo sapiens, NCI-H929, 48 h) was 9.26 µM.

Consider `CC(C)C(COc1ccnc2ccsc12)CC1Cc2ccccc2C12CCC(Nc1cccc(Cl)c1)(C(=O)O)CC2` (stereo not drawn) [Example 525, (1r,4r)-4-(3-chloroanilino)-2′-(3-methyl-2-{[(thieno[3,2-b]pyridin-7-yl)oxy]methyl}butyl)-2′,3′-dihydrospiro[cyclohexane-1,1′-indene]-4-carboxylic acid], for which, in assay [1], the Ki amounted to 0.293 µM. The IC50 in assay [2] turned out to be 2.49 µM.

As to `Cc1cc2c(OCCC[C@H]3Cc4ccccc4[C@]34CC[C@@](Nc3cccc(Cl)c3)(C(=O)O)CC4)cccc2[nH]1` [Example 482, (1r,2′S,4S)-4-(3-chloroanilino)-2′-{3-[(2-methyl-1H-indol-4-yl)oxy]propyl}-2′,3′-dihydrospiro[cyclohexane-1,1′-indene]-4-carboxylic acid], in assay [1], the inhibition constant (Ki) stood at 0.317 µM. Besides, the IC50 in assay [2] (Homo sapiens, NCI-H929, 48 h) was 12.4 µM.

Regarding `CC1CCc2nccc(OC[C@H](C)CC3Cc4ccccc4[C@]34CC[C@@](Nc3cccc(Cl)c3)(C(=O)O)CC4)c21` (single isomer, unassigned) [Example 600], the Ki in assay [1] worked out at 0.00426 µM. Moreover, in assay [2] (Homo sapiens, NCI-H929, 48 h), the IC50 was 0.512 µM.

As to `C[C@@H](COc1ccnc2occc12)C[C@H]1Cc2ccccc2[C@]12CC[C@@](Nc1cccc(Cl)c1)(C(=O)O)CC2` [Example 606, (1r,2′S,4S)-4-(3-chloroanilino)-2′-{(2R)-3-[(furo[2,3-b]pyridin-4-yl)oxy]-2-methylpropyl}-2′,3′-dihydrospiro[cyclohexane-1,1′-indene]-4-carboxylic acid], the inhibition constant Ki in assay [1] came out at 0.0773 µM. The IC50 in assay [2] (Homo sapiens, NCI-H929, 48 h) came to 2.14 µM.

Turning to `O=C(O)[C@]1(Nc2cccc(Cl)c2)CC[C@]2(CC1)C(COCCc1ccccc1)=Cc1ccccc12` [Example 409, (1s,4s)-4-(3-chloroanilino)-2′-[(2-phenylethoxy)methyl]spiro[cyclohexane-1,1′-indene]-4-carboxylic acid], in assay [1], the Ki came out at 0.155 µM. Further, the IC50 in assay [2] (Homo sapiens, NCI-H929, 48 h) stood at 30 µM.

On to `O=C(O)[C@]1(Nc2cccc(Cl)c2)CC[C@@]2(CC1)c1ccccc1CN2CCCOc1ccccc1` [Example 35, (1s,4s)-4-(3-chloroanilino)-2′-(3-phenoxypropyl)-2′,3′-dihydrospiro[cyclohexane-1,1′-isoindole]-4-carboxylic acid], for which the Ki in assay [1] turned out to be 0.332 µM. Besides, the IC50 in assay [2] (Homo sapiens, NCI-H929, 48 h) amounted to 30 µM.

Turning to `O=C(O)[C@]1(Nc2cccc(Cl)c2)CC[C@@]2(CC1)c1ccccc1C[C@H]2C[C@@H](COc1ccncc1)c1ccccc1` [Example 553, (1r,2′R,4R)-4-(3-chloroanilino)-2′-{(2R)-2-phenyl-3-[(pyridin-4-yl)oxy]propyl}-2′,3′-dihydrospiro[cyclohexane-1,1′-indene]-4-carboxylic acid], the Ki in assay [1] was 5.64 µM. Moreover, the IC50 in assay [2] (Homo sapiens, NCI-H929, 48 h) is 17.5 µM.

Regarding `COc1ccc2c(c1)[C@]1(CC[C@@](Nc3cccc(Cl)c3)(C(=O)O)CC1)C(c1cccc(Oc3ccccc3)c1)C2` (single isomer, unassigned) [Example 378, (1r,4r)-4-(3-chloroanilino)-6′-methoxy-2′-(3-phenoxyphenyl)-2′,3′-dihydrospiro[cyclohexane-1,1′-indene]-4-carboxylic acid], the inhibition constant Ki in assay [1] worked out at 0.0632 µM. In assay [2] (Homo sapiens, NCI-H929, 48 h), the IC50 was found to be 9.24 µM.

Take `CC[C@H](COc1ccnc2ccsc12)C[C@H]1Cc2ccccc2[C@]12CC[C@@](Nc1cccc(Cl)c1)(C(=O)O)CC2` [Example 537, (1r,2′S,4S)-4-(3-chloroanilino)-2′-[(2S)-2-{[(thieno[3,2-b]pyridin-7-yl)oxy]methyl}butyl]-2′,3′-dihydrospiro[cyclohexane-1,1′-indene]-4-carboxylic acid]: the Ki in assay [1] stood at 0.575 µM. Further, the IC50 in assay [2] (Homo sapiens, NCI-H929, 48 h) came out at 16 µM.

Turning to `O=C(O)[C@]1(Nc2cccc(Cl)c2)CC[C@]2(CC1)C(CCOc1cccc3[nH]ccc13)=Cc1ccccc12` [Example 192, (1r,4r)-4-(3-chloroanilino)-2′-{2-[(1H-indol-4-yl)oxy]ethyl}spiro[cyclohexane-1,1′-indene]-4-carboxylic acid], in assay [1], the Ki was found to be 0.0615 µM. Also, in assay [2] (Homo sapiens, NCI-H929, 48 h), the IC50 worked out at 4.19 µM.

With `O=C(O)[C@]1(Nc2cccc(Cl)c2)CC[C@@]2(CC1)c1ccccc1C[C@H]2C[C@H](COc1ccnc2ccsc12)c1ccccc1` [Example 546, (1r,2′R,4R)-4-(3-chloroanilino)-2′-{(2S)-2-phenyl-3-[(thieno[3,2-b]pyridin-7-yl)oxy]propyl}-2′,3′-dihydrospiro[cyclohexane-1,1′-indene]-4-carboxylic acid], the inhibition constant (Ki) in assay [1] stood at 1.64 µM. The IC50 in assay [2] (Homo sapiens, NCI-H929, 48 h) was determined as 30 µM.

As for `CC(C)C(COc1cccnc1)CC1Cc2ccccc2[C@]12CC[C@@](Nc1cccc(Cl)c1)(C(=O)O)CC2` (single isomer, unassigned) [Example 528, (1r,4r)-4-(3-chloroanilino)-2′-(3-methyl-2-{[(pyridin-3-yl)oxy]methyl}butyl)-2′,3′-dihydrospiro[cyclohexane-1,1′-indene]-4-carboxylic acid], the inhibition constant Ki in assay [1] turned out to be 3.28 µM. In addition, the IC50 in assay [2] worked out at 30 µM.

For `O=C(O)[C@]1(Nc2cccc(Cl)c2)CC[C@@]2(CC1)c1ccccc1CC2CCCOc1ccnc(F)c1` (mixture of isomers) [Example 427, (1r,4r)-4-(3-chloroanilino)-2′-{3-[(2-fluoropyridin-4-yl)oxy]propyl}-2′,3′-dihydrospiro[cyclohexane-1,1′-indene]-4-carboxylic acid], the inhibition constant Ki in assay [1] is 0.226 µM. The IC50 in assay [2] (Homo sapiens, NCI-H929, 48 h) was 17.4 µM.

With `O=C(O)[C@]1(Nc2cccc(Br)c2)CC[C@@]2(C=Cc3c(Br)cccc32)CC1` [Example 60, (1r,4r)-4′-bromo-4-(3-bromoanilino)spiro[cyclohexane-1,1′-indene]-4-carboxylic acid], in assay [1], the inhibitory constant (Ki) came out at 0.276 µM. The IC50 in assay [2] (Homo sapiens, NCI-H929, 48 h) came out at 30 µM.

With `CCC1Cc2ccccc2C12CCC(Nc1cccc(Br)c1)(C(=O)O)CC2` (stereo not drawn) [Example 147, 4-(3-bromoanilino)-2′-ethyl-2′,3′-dihydrospiro[cyclohexane-1,1′-indene]-4-carboxylic acid], the inhibition constant (Ki) in assay [1] was found to be 0.816 µM. Moreover, in assay [2] (Homo sapiens, NCI-H929, 48 h), the IC50 was found to be 30 µM.
